Experimental data from the NIST ThermoML archive (doi:10.1021/acs.jced.8b00358).

Legend:
[1] = 83 kPa, Liquid; for speed of sound: Frequency=3 MHz, Single path-length method; for mass density: Vibrating tube method
[2] = molar heat capacity at constant pressure; details: 83 kPa, Liquid, DSC

CCCCCCC(=O)OCC(COC(=O)CCCCCC)(COC(=O)CCCCCC)COC(=O)CCCCCC [pentaerythritol tetraheptanoate]
Details	mass density [kg/m3]	molar heat capacity at constant pressure [J/K/mol]	speed of sound [m/s]
[1], 278.15 K	989.09	–	1435
[1], 283.15 K	985.27	–	1417.7
[1], 288.15 K	981.48	–	1400.7
[1], 293.15 K	977.69	–	1383.8
[1], 298.15 K	973.91	–	1367
[1], 303.15 K	970.14	–	1350.3
[1], 308.15 K	966.38	–	1333.9
[1], 313.15 K	962.62	–	1317.8
[1], 318.15 K	958.87	–	1301.9
[1], 323.15 K	955.13	–	1286.1
[1], 328.15 K	951.39	–	1270.4
[1], 333.15 K	947.66	–	1254.9
[1], 338.15 K	943.92	–	1239.6
[1], 343.15 K	940.2	–	1224.5
[2], 293.14 K	–	1059.1	–
[2], 294.14 K	–	1060.3	–
[2], 295.14 K	–	1062	–
[2], 296.14 K	–	1063.8	–
[2], 297.14 K	–	1065.6	–
[2], 298.14 K	–	1066.7	–
[2], 299.14 K	–	1068.5	–
[2], 300.14 K	–	1070.2	–
[2], 301.14 K	–	1071.4	–
[2], 302.14 K	–	1073.2	–
[2], 303.14 K	–	1074.9	–
[2], 304.14 K	–	1076.1	–
[2], 305.14 K	–	1077.8	–
[2], 306.14 K	–	1079	–
[2], 307.14 K	–	1080.8	–
[2], 308.14 K	–	1082.5	–
[2], 309.14 K	–	1083.7	–
[2], 310.14 K	–	1085.4	–
[2], 311.14 K	–	1086.6	–
[2], 312.14 K	–	1088.4	–
[2], 313.14 K	–	1090.1	–
[2], 314.14 K	–	1091.9	–
[2], 315.14 K	–	1093	–
[2], 316.14 K	–	1094.8	–
[2], 317.14 K	–	1096.5	–
[2], 318.14 K	–	1098.3	–
[2], 319.14 K	–	1099.5	–
[2], 320.14 K	–	1101.2	–
[2], 321.14 K	–	1103	–
[2], 322.13 K	–	1104.1	–
[2], 323.14 K	–	1105.9	–
[2], 324.14 K	–	1107.7	–
[2], 325.14 K	–	1108.8	–
[2], 326.14 K	–	1110.6	–
[2], 327.14 K	–	1112.3	–
[2], 328.14 K	–	1114.1	–
[2], 329.14 K	–	1115.8	–
[2], 330.14 K	–	1117	–
[2], 331.14 K	–	1118.8	–
[2], 332.14 K	–	1120.5	–
[2], 333.14 K	–	1121.7	–
[2], 334.13 K	–	1123.4	–
[2], 335.14 K	–	1125.2	–
[2], 336.14 K	–	1127	–
[2], 337.14 K	–	1128.1	–
[2], 338.14 K	–	1129.9	–
[2], 339.14 K	–	1131.6	–
[2], 340.14 K	–	1133.4	–
[2], 341.13 K	–	1134.6	–
[2], 342.14 K	–	1136.3	–
[2], 343.14 K	–	1138.1	–
[2], 344.14 K	–	1139.8	–
[2], 345.13 K	–	1141.6	–
[2], 346.14 K	–	1143.3	–
[2], 347.14 K	–	1145.1	–
[2], 348.14 K	–	1146.3	–
[2], 349.14 K	–	1148	–
[2], 350.14 K	–	1149.8	–
[2], 351.14 K	–	1151.5	–
[2], 352.14 K	–	1153.3	–
[2], 353.14 K	–	1154.4	–
[2], 354.14 K	–	1156.2	–
[2], 355.14 K	–	1158	–
[2], 356.14 K	–	1159.7	–
[2], 357.14 K	–	1160.9	–
[2], 358.14 K	–	1162.6	–
[2], 359.14 K	–	1164.4	–
[2], 360.14 K	–	1166.1	–
[2], 361.14 K	–	1167.9	–
[2], 362.14 K	–	1169.1	–
[2], 363.14 K	–	1170.8	–
[2], 364.14 K	–	1172.6	–
[2], 365.14 K	–	1174.3	–
[2], 366.14 K	–	1176.1	–
[2], 367.14 K	–	1177.3	–
[2], 368.14 K	–	1179	–
[2], 369.14 K	–	1180.8	–
[2], 370.14 K	–	1182.5	–
[2], 371.14 K	–	1184.3	–
[2], 372.14 K	–	1185.4	–
[2], 373.14 K	–	1187.2	–
[2], 374.14 K	–	1188.9	–
[2], 375.14 K	–	1190.7	–
[2], 376.14 K	–	1192.5	–
[2], 378.14 K	–	1196	–
[2], 379.14 K	–	1197.7	–
[2], 380.14 K	–	1198.9	–
[2], 381.14 K	–	1200.6	–
[2], 382.14 K	–	1202.4	–
[2], 383.14 K	–	1204.2	–
[2], 384.14 K	–	1205.9	–
[2], 385.14 K	–	1207.7	–
[2], 386.14 K	–	1209.4	–
[2], 387.14 K	–	1211.2	–
[2], 388.14 K	–	1212.9	–
[2], 389.14 K	–	1214.1	–
[2], 390.14 K	–	1215.9	–
[2], 391.14 K	–	1217.6	–
[2], 392.14 K	–	1219.4	–
[2], 393.14 K	–	1220.5	–
[2], 394.14 K	–	1222.3	–
[2], 395.14 K	–	1224	–
[2], 396.14 K	–	1225.2	–
[2], 397.14 K	–	1227	–
[2], 398.14 K	–	1228.7	–
[2], 399.14 K	–	1230.5	–
[2], 400.14 K	–	1232.2	–
[2], 401.14 K	–	1234	–
[2], 402.14 K	–	1235.7	–
[2], 403.14 K	–	1236.9	–
[2], 404.14 K	–	1238.7	–
[2], 405.14 K	–	1240.4	–
[2], 406.14 K	–	1242.2	–
[2], 407.14 K	–	1243.9	–
[2], 408.14 K	–	1245.7	–
[2], 409.14 K	–	1247.4	–
[2], 410.14 K	–	1248.6	–
[2], 411.14 K	–	1250.4	–
[2], 412.13 K	–	1252.1	–
[2], 413.14 K	–	1253.9	–
[2], 414.13 K	–	1255.6	–
[2], 415.14 K	–	1257.4	–
[2], 416.14 K	–	1258.5	–
[2], 417.14 K	–	1260.3	–
